ChEMBL document CHEMBL4627246, “Pyroglutamide-Based P2X7 Receptor Antagonists Targeting Inflammatory Bowel Disease” (J Med Chem, 2020)

Key:
Assay type in all cases: cell-based
UACC-62 = test: Cytotoxicity against human UACC62 cells assessed as effect on cell growth at 10 uM incubated for 48 hrs by sulforhodamine B assay; settings: uacc-62, 48 h
K562 = test: Cytotoxicity against human K562 cells assessed as effect on cell growth at 10 uM incubated for 48 hrs by sulforhodamine B assay; settings: k562, 48 h
KM12 = test: Cytotoxicity against human KM12 cells assessed as effect on cell growth at 10 uM incubated for 48 hrs by sulforhodamine B assay; settings: km12, 48 h
SR = test: Cytotoxicity against human SR cells assessed as effect on cell growth at 10 uM incubated for 48 hrs by sulforhodamine B assay
RXF 393 = test: Cytotoxicity against human RXF393 cells assessed as effect on cell growth at 10 uM incubated for 48 hrs by sulforhodamine B assay; settings: rxf 393, 48 h
LOX IMVI = test: Cytotoxicity against human LOXIMVI cells assessed as effect on cell growth at 10 uM incubated for 48 hrs by sulforhodamine B assay
HCT-116 = test: Cytotoxicity against human HCT116 cells assessed as effect on cell growth at 10 uM incubated for 48 hrs by sulforhodamine B assay; settings: hct-116, 48 h
NCI-H322M = test: Cytotoxicity against human NCI-H322M cells assessed as effect on cell growth at 10 uM incubated for 48 hrs by sulforhodamine B assay
CCRF-CEM = test: Cytotoxicity against human CCRF-CEM cells assessed as effect on cell growth at 10 uM incubated for 48 hrs by sulforhodamine B assay
MDA-MB-468 = test: Cytotoxicity against human MDA-MB-468 cells assessed as effect on cell growth at 10 uM incubated for 48 hrs by sulforhodamine B assay; settings: mda-mb-468, 48 h
HCC 2998 = test: Cytotoxicity against human HCC2998 cells assessed as effect on cell growth at 10 uM incubated for 48 hrs by sulforhodamine B assay; settings: hcc 2998, 48 h
MDA-MB-435 = test: Cytotoxicity against human MDA-MB-435 cells assessed as effect on cell growth at 10 uM incubated for 48 hrs by sulforhodamine B assay; settings: mda-mb-435, 48 h
ACHN = test: Cytotoxicity against human ACHN cells assessed as effect on cell growth at 10 uM incubated for 48 hrs by sulforhodamine B assay
SK-OV-3 = test: Cytotoxicity against human SKOV3 cells assessed as effect on cell growth at 10 uM incubated for 48 hrs by sulforhodamine B assay; settings: sk-ov-3, 48 h
TK-10 = test: Cytotoxicity against human TK10 cells assessed as effect on cell growth at 10 uM incubated for 48 hrs by sulforhodamine B assay; settings: tk-10, 48 h
SNB-19 = test: Cytotoxicity against human SNB19 cells assessed as effect on cell growth at 10 uM incubated for 48 hrs by sulforhodamine B assay; settings: snb-19, 48 h
OVCAR-3 = test: Cytotoxicity against human OVCAR3 cells assessed as effect on cell growth at 10 uM incubated for 48 hrs by sulforhodamine B assay; settings: ovcar-3, 48 h
MOLT-4 = test: Cytotoxicity against human MOLT4 cells assessed as effect on cell growth at 10 uM incubated for 48 hrs by sulforhodamine B assay; settings: molt-4, 48 h
DU-145 = test: Cytotoxicity against human DU145 cells assessed as effect on cell growth at 10 uM incubated for 48 hrs by sulforhodamine B assay; settings: du-145, 48 h
MCF7 = test: Cytotoxicity against human MCF7 cells assessed as effect on cell growth at 10 uM incubated for 48 hrs by sulforhodamine B assay; settings: mcf7, 48 h

Measured: Activity

CN(C)/C=C1\C[C@H]2C(=O)N(Cc3ccc(Cl)cc3Cl)C(N(C)C)N2C1=O (stereo not given in full)
Non-Toxic: all assays above
